Ends that are not written are not given here. * marks the point of attachment. For = O=C*
Assays:
[1] = system: hemolymph phenoloxidase; test: Hemolymph phenoloxidase (PO) activation in larvae; type: in vivo, greater wax moth; settings: for PO activity after BacSp222 alone: 5 μL injection
Method: The experiments were based on a previously published protocol. The greater wax moth was reared in the dark on honeybee nest debris at 28 °C and 70% humidity. Last instar larvae were used for the experiments. To test the activation of the phenoloxidase (PO) system by LPS, larvae were divided into groups of 10 insects. One group was injected with PBS buffer without Ca^2+ and Mg^2+, the other one with 1 μg of LPS O55:B5 (IEC) diluted in PBS, and the next one with the mixture of 1 μg of LPS and BacSp222 at concentrations 3, 6, or 30 μM. The last group was treated with the bacteriocin alone at the same concentrations. Before injection, all prepared solutions were preincubated for 30 min at 30 °C for possible complex formation, while the puncture surface of each larva was disinfected with 70% ethanol. Injection was done in the last but one proleg by a Hamilton syringe at a volume of 5 μL. After injection, the larvae were placed in Petri dishes on sterile filter paper. Bleeding larvae were excluded from the experiment. […]
The assay was performed similarly to the previous papers. , The hemolymph was diluted 5 times in apyrogenic water, and 2 μL of this dilution was added to 18 μL of buffer A (50 mM Tris–HCl pH 7.4, 150 mM NaCl, 5 mM CaCl2) in a 96-well plate. After 20 min of preincubation at room temperature, 180 μL of a 2 mM solution of 3,4-dihydroxy- L -phenylalanine (L-DOPA) in buffer B (50 mM Na2HPO4, 50 mM NaH2PO4; pH 6.5) was added, and then, the absorbance at 490 nm was measured immediately (time 0) at the indicated time-points. […]
All experiments were conducted three times independently, except for the DLS and ITC measurements, which were performed once and twice, respectively. […] For experiments concerning measurements of TNF, NO, cellular metabolic activity, TLRs activation, and LAL assay, the statistical significance of differences between the particular result and control was calculated using a two-way ANOVA with Tukey’s multiple comparison test as a posthoc test and shown in figures as asterisks *, **, or ***, indicating p < 0.05, p < 0.01, and p < 0.001, respectively. […]

[2] = Dynamic light scattering, hydrodynamic radius; type: physicochemical; settings: BacSp222 alone at 5, 50, 500 μg/mL, DLS, PBS, 37 °C
Method: For dynamic light scattering experiments, (1) the solution of PBS without Ca^2+ and Mg^2+ or PBS without Ca^2+ and Mg^2+ with (2) 50 μg/mL LPS O55:B5 (IEC), (3) 50 μg/mL LPS O111:B4 (IEC), (4) BacSp222 at concentration 5, 50, and 500 μg/mL, or (5) 50 μg/mL LPS O55/B5 (IEC) + BacSp222 at concentration 5, 50, and 500 μg/mL were incubated for 15 min at 37 °C. Then, the hydrodynamic radius of the LPS and BacSp222 molecules, as well as LPS-BacSp222 complexes, was determined by dynamic light scattering (DLS) on the Prometheus Panta apparatus (NanoTemper, Munich, Germany). Prometheus Standard Capillaries (NanoTemper, Munich, Germany) were used in the experiments, and the measurements were taken at 37 °C. The results were processed by the instrument software (Prometheus Panta Software).

[3] = system: proenzyme Factor C from amebocyte lysate; test: Residual LPS activity, amebocyte lysate test (Pierce Chromogenic Endotoxin Quant Kit); type: biochemical; settings: 4 μg BacSp222 preincubated with 3 pg LPS O111:B4 standard, 15 min, 37 °C, 60 μL PBS; 405 nm; mean n = 3
Method: The separate and independent assay used to determine the reduction of the LPS biological potential after incubation with BacSp222 was a test. Briefly, this approach utilizes the ability of endotoxin to activate a proenzyme Factor C from amebocyte lysate and allows for spectrophotometric measurement of the released active enzyme using a chromogenic synthetic peptide substrate. Due to high specificity and sensitivity, this assay is widely used to detect trace amounts of LPS. As presented in Figure , preincubation of LPS with a large excess of BacSp222 reduced LPS activity by ca. 50%.
The residual biological activity of LPS after preincubation with BacSp222 was evaluated by using a commercial assay kit. The reaction was performed for 4 μg of BacSp222, which was preincubated with 3 pg of LPS O111:B4 standard for 15 min at 37 °C in a final volume of 60 μL of PBS without Ca^2+ and Mg^2+. Simultaneously and independently, the same quantity of BacSp222 and LPS as above was preincubated separately as controls. After preincubation, the residual biological activity of endotoxin in all samples was determined using a spectrophotometric Pierce Chromogenic Endotoxin Quant Kit (Thermo, Waltham, MA, USA). The absorbance was measured at 405 nm using a microplate reader Synergy H1 Hybrid plate reader controlled by Gene5 version 2.00.18 software (BIOTEK Instruments, Winooski, VT, USA).

For-MAGLLRFLLSKGRALYNWAKSHVGKVWEWLKSGATYEQIKEWIENALGWR [BacSp222]
PO activity after BacSp222 alone ([1]; 3 μM BacSp222 alone (printed "bacteriocin alone")): PO activity at a similar level as the injection of PBS buffer
inhibition of LPS-induced PO activation ([1]; 3 μM BacSp222 preincubated (30 min, 30 °C) and coinjected with 1 μg LPS O55:B5 (IEC), n = 3, printed "inhibited ... to about 50%"): about 50%
PO activity after BacSp222 alone ([1]; 6 μM BacSp222 alone): induced PO activity
oligomerization in solution [2]: has a tendency to oligomerize in solutions
reduction of LPS activity [3]: ca. 50%

From publication PMC12340957, “Interactions between Lipopolysaccharide and Peptide Bacteriocin BacSp222 Influence Their Biological Activities” (ACS Infectious Diseases, 2025)
